Assay results from PMC12736008, “New Dimethylpyridine-3-Carboxamide Derivatives as MMP-13 Inhibitors with Anticancer Activity” (Molecules, 2025).

Experiments:
HSA/Dansyl-L-Phe = target: T1, HSA/Dansyl-L-Phe (Homo sapiens, UniProt P02768); assay: Marker displacement from HSA/Dansyl-L-Phe complex (Sudlow site II); format: binding; settings: room temperature
T1 construct: purchased Sigma-Aldrich
Description: (§1) The human serum albumin (HSA) has two main drug-binding sites, known as Sudlow site I and Sudlow site II, located in subdomains IIA and IIIA of the albumin structure, respectively. […] In addition to these main sites, HSA has the capacity to bind ligands in other regions, including histidine residues, the N-terminus of the molecule, and metal binding sites. However, it is most common for drugs to bind to Sudlow I and Sudlow II. In order to study binding to a specific site in the protein, fluorescent markers, Dansyl-L-Gly and Dansyl-L-Phe, were used. The Dansyl-L-Gly interacts with Sudllow I, while the Dansyl-L-Phe prefers Sudllow II [41, 42]. The tested compounds were added in portions to the solution that contained the HSA/marker complex, and the fluorescence spectrum was recorded (Figure 11 and Figure 12). The percentage of compound exchange in the albumin pocket was calculated using Equation (6):(6) displacement % =F^0 −F /F^0 where F^0 is the maximum fluorescence intensity of HSA/Dansyl-L-Gly complex, and F is the maximum fluorescence intensity after a quencher addition. The calculated data were collected in Table 6. It was observed that only compound 3b displaces from the Dansyl-L-Gly binding site, as indicated by a decrease in fluorescence intensity with increasing concentration of this derivative, but only to approximately 8%. […] The band intensity increases slightly, which may be due to the dilution of the solution. The dilution of the sample leads to an increase in the average distance between molecules. This, in turn, results in a reduction in the number of collisions and reabsorptions, thereby enhancing the efficiency of fluorescence emission. Nevertheless, the binding site for Dansyl-L-Phe was displaced by all of the tested derivatives.
Solutions of Dansyl-L-Phe (Chem-Norm Biotech, Wuhan, China) and Dansyl-L-Gly (Sigma-Aldrich, Tokyo, Japan) were prepared by dissolving them separately in ethanol to a final concentration of 1·10^−3 mol/dm^3. The HSA solution was prepared in the same way as for titration binding measurements. Spectra were recorded at room temperature using a Cary Eclipse 500 spectrophotometer (Agilent, Santa Clara, CA, USA) with an excitation wavelength of 350 nm, and an emission range of 410–670 nm and the PMT voltages were (V) 700 and 650 for Dansyl-L-Gly and Dansyl-L-Phe, respectively. The complexes were prepared by mixing the HSA solution with the dansylated markers, and then adding the solution of the studied compounds from a ratio of 0 to 11.0 molar at the same increments, using the same protocol as in the spectroscopy studies.

A375 (melanoma) cells = assay: MTT assay, A375; format: cell-based, human; settings: for reduction in cancer cell viability / anticancer potential (A375): MTT, 24 h, 0.004 mM to 0.5 mM
Description: As mentioned earlier, MMP-13 is overexpressed and functionally significant in various cancers, including melanoma and colorectal carcinoma. For instance, high MMP-13 levels have been correlated with metastasis and poor survival in melanoma patients. In colorectal cancer, elevated MMP-13 activity has been observed in tumors compared to normal mucosa, and its expression is associated with a worse prognosis. Based on computational studies, four out of the eleven designed compounds showing the most promising predicted activity against MMP-13 were selected for biological evaluation. For the MTT assay, NHDF cells were used as the healthy reference cell line, while A375 (melanoma) and HT-29 (colorectal adenocarcinoma cancer) cell lines were chosen as cancer models.
Experiments were conducted using two cancer cell lines and, as a control, a normal human dermal fibroblasts (NHDF; ATCC PCS-201-012). The A375 cell line (human melanoma, ATCC CRL-1619), and HT-29 cell line (human colorectal adenocarcinoma, ATCC HTB-38) were cultured in DMEM (Dulbecco’s Modified Eagle Medium, Institute of Immunology and Experimental Therapy (IITD), Wrocław, Poland) supplemented with 1% antibiotics (10 U/mL penicillin and 10 µg/mL streptomycin, Sigma-Aldrich, St Louis, MO, USA), 1% glutamine (Sigma-Aldrich, St Louis, MO, USA) and 10% fetal bovine serum (FBS, Gibco, Grand Island, NY, USA). For NHDF cultures, α-MEM (α-Minimum Essentials Medium, Institute of Immunology and Experimental Therapy (IITD), Poland) was used with the same supplement combination as for the cancer cell lines. All cells were maintained in a humidified incubator (INCO 105, Memmert GmbH, Schwabach, Germany) at 37 °C with 5% CO2 and 95% humidity. Cells were passaged routinely by trypsinization (twice a week). For the MTT (3-(4,5-simethylthiazol-2,5-diphenyltetrazolinum bromide), Sigma, St. Louis, MO, USA) assay, cells were used after 2–4 passages, when they reached approximately 80% confluence.
(§2) All tested compounds were dissolved in DMSO to obtain stock solutions with a final concentration of 50 mM (3a, 3b, 3e), 40 mM (3f, 3g, 3i, 3j), and 35 mM (3h, 3k). […] In the next step, 10 µL of each stock solution was added to 990 µL of supplemented medium.
The MTT assay was performed in 96-well plates, with a seeding density of 1 × 10^4 cells per well. All cell lines were incubated for 24 h in their respective media: α-MEM for (NHDF cells) and DMEM for (A375 and HT-29) cells. After incubation, the medium was removed and replaced with fresh medium containing the tested compounds at concentrations ranging from 0.004 mM to 0.5 mM. […] Absorbance was measured spectrophotometrically at a wavelength of 570 nm using a BioTek SYNERGY H1 microplate reader (Agilent, Santa Clara, CA, USA).

HSA/Dansyl-L-Gly = target: T2, HSA/Dansyl-L-Gly (Homo sapiens, UniProt P02768); assay: Marker displacement from HSA/Dansyl-L-Gly complex (Sudlow site I); format: binding; settings: room temperature
T2 construct: purchased Sigma-Aldrich
Description: as §1, with “The dilution of the sample leads to an increase in the average distance between molecules.” left out, “Nevertheless, the binding site for Dansyl-L-Phe was displaced by all of the tested derivatives.” left out
Solutions of Dansyl-L-Phe (Chem-Norm Biotech, Wuhan, China) and Dansyl-L-Gly (Sigma-Aldrich, Tokyo, Japan) were prepared by dissolving them separately in ethanol to a final concentration of 1·10^−3 mol/dm^3. […] Spectra were recorded at room temperature using a Cary Eclipse 500 spectrophotometer (Agilent, Santa Clara, CA, USA) with an excitation wavelength of 350 nm, and an emission range of 410–670 nm and the PMT voltages were (V) 700 and 650 for Dansyl-L-Gly and Dansyl-L-Phe, respectively. […]

[1] = Solubility on preparing DMSO stock solutions; format: physicochemical; settings: dissolved to 30 mM
Protocol: as §2

T2 sequence (P02768 25-609): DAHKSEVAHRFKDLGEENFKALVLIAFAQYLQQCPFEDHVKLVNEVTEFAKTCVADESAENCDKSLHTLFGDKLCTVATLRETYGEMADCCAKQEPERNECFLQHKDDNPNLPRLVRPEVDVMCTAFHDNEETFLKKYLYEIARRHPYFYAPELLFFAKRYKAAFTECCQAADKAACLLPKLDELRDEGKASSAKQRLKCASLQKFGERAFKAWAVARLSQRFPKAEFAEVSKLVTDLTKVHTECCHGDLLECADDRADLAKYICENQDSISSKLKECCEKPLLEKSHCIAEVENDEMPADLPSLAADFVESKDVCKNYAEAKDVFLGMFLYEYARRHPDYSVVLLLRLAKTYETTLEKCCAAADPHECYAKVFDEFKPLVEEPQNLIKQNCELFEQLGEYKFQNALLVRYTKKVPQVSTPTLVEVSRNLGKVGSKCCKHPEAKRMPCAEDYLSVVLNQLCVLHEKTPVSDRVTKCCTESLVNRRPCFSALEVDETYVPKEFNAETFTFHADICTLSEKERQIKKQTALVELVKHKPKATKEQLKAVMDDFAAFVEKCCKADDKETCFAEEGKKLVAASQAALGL
T1 sequence (P02768 25-609): as above

| SMILES | Marker Displacement Percentage HSA/Dansyl-L-Gly (HSA/Dansyl-L-Phe) | selectivity ratio A375:NHDF (A375 (melanoma) cells; at a concentration of 0.5 mM) | Marker Displacement Percentage HSA/Dansyl-L-Gly (HSA/Dansyl-L-Gly) | solubility [1] | reduction in cancer cell viability / anticancer potential (A375) (A375 (melanoma) cells) |
| --- | --- | --- | --- | --- | --- |
| Cc1cc(C)c(C(=O)NCC(=O)NCc2ccc(Oc3ccccc3)cc2)c(S)n1 [Compound 3b, 4,6-dimethyl-N-{2-[(4-phenoxybenzyl)amino]-2-oxoethyl}-2-sulfanylpyridine-3-carboxamide] | 35.2% | 0.56 | – | – | – |
| Cc1cc(C)c(C(=O)NCC(=O)NCc2ccc(Cl)cc2)c(S)n1 [Compound 3c, N-{2-[(4-chlorobenzyl)amino]-2-oxoethyl}-4,6-dimethyl-2-sulfanylpyridine-3-carboxamide] | 18.5% | – | no quenching occurs at all | low solubility | strongest reduction in cancer cell viability |
| Cc1cc(C)c(C(=O)NCC(=O)NCc2ccccc2Cl)c(S)n1 [Compound 3d, N-{2-[(2-chlorobenzyl)amino]-2-oxoethyl}-4,6-dimethyl-2-sulfanylpyridine-3-carboxamide] | 10.6% | – | no quenching occurs at all | low solubility | strongest reduction in cancer cell viability |
| Cc1cc(C)c(C(=O)NCC(=O)NCc2ccccc2)c(S)n1 [Compound 3g, 4,6-dimethyl-N-[2-(benzylamino)-2-oxoethyl]-2-sulfanylpyridine-3-carboxamide] | 11.1% | – | no quenching occurs at all | – | only moderate anticancer potential |
